Measurements: patent US20210323977A1, “PYRROLIDINYL AMIDE COMPOUNDS FOR THE TREATMENT OF AUTOIMMUNE DISEASE” (Hoffmann-La Roche Inc., priority 2018, published 2021)

What follows are compounds tested against T1, human TLR9 (Homo sapiens, UniProt Q9NR96) (assay: HEK293-Blue-hTLR-9 cells assay). Details: HEK293-Blue-hTLR9 cells, SEAP reporter, ODN2006 stimulation, 20 hrs.
T1 sequence (Q9NR96 26-1032): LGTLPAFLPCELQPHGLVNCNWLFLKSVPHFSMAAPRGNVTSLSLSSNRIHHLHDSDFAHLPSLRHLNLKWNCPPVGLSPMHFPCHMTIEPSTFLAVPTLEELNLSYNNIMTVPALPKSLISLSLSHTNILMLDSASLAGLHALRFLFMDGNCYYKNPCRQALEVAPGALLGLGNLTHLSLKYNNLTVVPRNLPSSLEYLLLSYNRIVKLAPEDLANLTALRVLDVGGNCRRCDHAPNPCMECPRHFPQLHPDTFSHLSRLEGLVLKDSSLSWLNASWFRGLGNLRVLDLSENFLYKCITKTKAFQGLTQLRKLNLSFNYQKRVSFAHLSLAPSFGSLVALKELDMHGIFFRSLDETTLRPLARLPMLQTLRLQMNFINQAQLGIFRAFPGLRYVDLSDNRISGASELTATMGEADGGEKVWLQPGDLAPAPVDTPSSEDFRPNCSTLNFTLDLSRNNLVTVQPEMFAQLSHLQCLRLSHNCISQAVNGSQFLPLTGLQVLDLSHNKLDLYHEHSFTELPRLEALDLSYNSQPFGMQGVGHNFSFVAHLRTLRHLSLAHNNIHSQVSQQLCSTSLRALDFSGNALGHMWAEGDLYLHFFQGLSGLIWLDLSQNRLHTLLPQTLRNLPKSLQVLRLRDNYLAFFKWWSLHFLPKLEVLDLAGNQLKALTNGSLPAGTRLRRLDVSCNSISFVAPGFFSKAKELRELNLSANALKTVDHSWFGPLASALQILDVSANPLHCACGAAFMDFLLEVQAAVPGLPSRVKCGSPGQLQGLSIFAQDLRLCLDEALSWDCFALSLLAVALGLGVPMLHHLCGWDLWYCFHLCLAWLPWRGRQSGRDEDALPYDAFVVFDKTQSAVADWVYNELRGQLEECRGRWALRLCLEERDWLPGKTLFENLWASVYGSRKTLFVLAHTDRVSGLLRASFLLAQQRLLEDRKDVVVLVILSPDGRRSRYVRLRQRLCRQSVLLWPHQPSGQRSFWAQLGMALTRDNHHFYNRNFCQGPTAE
Format: cell-based
Source text: HEK293-Blue-hTLR-9 Cells Assay:
A stable HEK293-Blue-hTLR-9 cell line was purchased from InvivoGen (Cat. #: hkb-htlh9, San Diego, Calif., USA). These cells were originally designed for studying the stimulation of human TLR9 by monitoring the activation of NF-κB. A SEAP (secreted embryonic alkaline phosphatase) reporter gene was placed under the control of the IFN-β minimal promoter fused to five NF-κB and AP-1-binding sites. The SEAP was induced by activating NF-κB and AP-1 via stimulating HEK-Blue hTLR9 cells with TLR9 ligands. Therefore the reporter expression was declined by TLR9 antagonist under the stimulation of a ligand, such as ODN2006 (Cat. #: tlrl-2006-1, Invivogen, San Diego, Calif., USA), for incubation of 20 hrs. The cell culture supernatant SEAP reporter activity was determined using QUANTI-Blue™ kit (Cat. #: rep-qb1, Invivogen, San Diego, Calif., USA) at a wavelength of 640 nm, a detection medium that turns purple or blue in the presence of alkaline phosphatase.
HEK293-Blue-hTLR9 cells were incubated at a density of 250,000-450,000 cells/mL in a volume of 170 μL in a 96-well plate in Dulbecco's Modified Eagle's medium (DMEM) containing 4.5 g/L glucose, 50 U/mL penicillin, […], […], 2 mM L-glutamine, 10% (v/v) heat-inactivated fetal bovine serum with addition of 20 sL test compound in a serial dilution in the presence of final DMSO at 1% and 10 sL of 20 uM ODN2006 in above DMEM, perform incubation under 37° C. in a CO2 incubator for 20 hrs. Then 20 sL of the supernatant from each well was incubated with 180 μL Quanti-blue substrate solution at 37° C. for 2 hrs and the absorbance was read at 620-655 nm using a spectrophotometer. The signalling pathway that TLR9 activation leads to downstream NF-x3B activation has been widely accepted, and therefore similar reporter assay was modified for evaluating TLR9 antagonist.
In the case of `CN1CCC(NC(=O)[C@@H]2CN(c3ccc(C#N)c4ncccc34)C[C@H]2C2CC2)CC1` (relative stereo) [Example 14, Trans-1-(8-cyano-5-quinolyl)-4-cyclopropyl-N-(1-methyl-4-piperidyl)pyrrolidine-3-carboxamide], the IC50 is reported as 4.5 µM. `CN1CCC(NC(=O)[C@@H]2CN(c3ccc(C#N)c4ncccc34)C[C@H]2C(F)(F)F)CC1` (relative stereo) [Example 17, Trans-1-(8-cyano-5-quinolyl)-N-(1-methyl-4-piperidyl)-4-(trifluoromethyl)pyrrolidine-3-carboxamide] showed an IC50 of 1 µM. `C[C@@H]1CN(c2ccc(C#N)c3ncccc23)C[C@H]1C(=O)NC1CCN(C)CC1` (relative stereo) [Example 28] showed an IC50 of 6.4 µM. Compound `CC[C@@H]1CN(c2ccc(C#N)c3ncccc23)C[C@H]1C(=O)NC1CCN(C)CC1` (relative stereo) [Example 29, Trans-1-(8-cyano-5-quinolyl)-4-ethyl-N-(1-methyl-4-piperidyl)pyrrolidine-3-carboxamide] has an IC50 of 6.9 µM. Compound `C[C@@H]1CN(c2ccc(C#N)c3ncccc23)C[C@H]1C(=O)N1CCC2(CCNCC2)CC1` (relative stereo) [Example 32, Trans-5-[3-(3,9-diazaspiro[5.5]undecane-3-carbonyl)-4-methyl-pyrrolidin-1-yl]quinoline-8-carbonitrile] has an IC50 of 2.4 µM. Compound `CC(C)[C@@H]1CN(c2ccc(C#N)c3ncccc23)C[C@H]1C(=O)NC1CCN(C)CC1` (relative stereo) [Example 37, Trans-1-(8-cyano-5-quinolyl)-4-isopropyl-N-(1-methyl-4-piperidyl)pyrrolidine-3-carboxamide] has an IC50 of 5.2 µM. With `CN1CCC(NC(=O)[C@@H]2CN(c3ccc(C#N)c4ncccc34)C[C@H]2C(F)F)CC1` (relative stereo) [Example 40, Trans-1-(8-cyano-5-quinolyl)-4-(difluoromethyl)-N-(1-methyl-4-piperidyl)pyrrolidine-3-carboxamide] the IC50 was 6.9 µM. `N[C@@H]1CCC[C@H](NC(=O)C2CN(c3ccc(C(F)(F)F)c4nccnc34)CC23CC3)C1` (relative stereo) [Example 43, Cis-N-(3-aminocyclohexyl)-5-[8-(trifluoromethyl)quinoxalin-5-yl]-5-azaspiro[2.4]heptane-7-carboxamide] showed an IC50 of 17.9 µM. For `CN1CCC(NC(=O)[C@@H]2CN(c3ccc(Cl)c4ncccc34)C[C@H]2C(F)(F)F)CC1` (relative stereo) [Example 46, Trans-1-(8-chloro-5-quinolyl)-N-(1-methyl-4-piperidyl)-4-(trifluoromethyl)pyrrolidine-3-carboxamide], the IC50 was 15.6 µM. For `C[C@@H]1CN(c2ccc(C#N)c3ncccc23)C[C@H]1C(=O)N1CCC2(CCNC2)C1` (relative stereo) [Example 53, Trans-5-[3-(2,7-diazaspiro[4.4]nonane-2-carbonyl)-4-methyl-pyrrolidin-1-yl]quinoline-8-carbonitrile], the IC50 was 2.6 µM. Compound `CN1CCC(NC(=O)C2CN(c3ccc(C#N)c4nccnc34)CC23CC3)CC1` (single isomer, unassigned) [Example 7A, 5-(8-Cyanoquinoxalin-5-yl)-N-(1-methyl-4-piperidyl)-5-azaspiro[2.4]heptane-7-carboxamide] has an IC50 of 3.2 µM. `CN1CCC(NC(=O)C2CN(c3ccc(C#N)c4nccnc34)CC23CC3)CC1` (single isomer, unassigned) [Example 7B, 5-(8-Cyanoquinoxalin-5-yl)-N-(1-methyl-4-piperidyl)-5-azaspiro[2.4]heptane-7-carboxamide] gave an IC50 of 3.3 µM. `N#Cc1ccc(N2CC(C(=O)NC3CCCNCC3)C(C(F)(F)F)C2)c2cccnc12` (single isomer, unassigned) [Example 30A, N-(azepan-4-yl)-1-(8-cyano-5-quinolyl)-4-(trifluoromethyl)pyrrolidine-3-carboxamide] gave an IC50 of 17.5 µM. Compound `N#Cc1ccc(N2CC(C(=O)NC3CCCNCC3)C(C(F)(F)F)C2)c2cccnc12` (single isomer, unassigned) [Example 30B, N-(azepan-4-yl)-1-(8-cyano-5-quinolyl)-4-(trifluoromethyl)pyrrolidine-3-carboxamide] has an IC50 of 16.2 µM. `CN1CCC(NC(=O)C2CN(c3ccc(C#N)c4ncccc34)CC23CC3)CC1` (single isomer, unassigned) [Example 41A, 5-(8-Cyano-5-quinolyl)-N-(1-methyl-4-piperidyl)-5-azaspiro[2.4]heptane-7-carboxamide] was tested, and the IC50 was 4.5 µM. For `C[C@@H]1CN(c2ccc(C#N)c3ncccc23)C[C@H]1C(=O)NC1CCCNCC1` (single isomer, unassigned) [Example 52A, Trans-N-(azepan-4-yl)-1-(8-cyano-5-quinolyl)-4-methyl-pyrrolidine-3-carboxamide], the IC50 was 12.3 µM. `C[C@@H]1CN(c2ccc(C#N)c3ncccc23)C[C@H]1C(=O)NC1CCCNCC1` (single isomer, unassigned) [Example 52B, Trans-N-(azepan-4-yl)-1-(8-cyano-5-quinolyl)-4-methyl-pyrrolidine-3-carboxamide] was tested, and the IC50 was 11.6 µM. `N#Cc1ccc(N2CC(C(=O)NC[C@H]3CNCCO3)C3(CC3)C2)c2nccnc12` (single isomer, unassigned) [Example 70A] gave an IC50 of 6.9 µM. Compound `N#Cc1ccc(N2CC(C(=O)NC[C@H]3CNCCO3)C3(CC3)C2)c2nccnc12` (single isomer, unassigned) [Example 70B] has an IC50 of 2.8 µM. For `N#Cc1ccc(N2CC(C(=O)NC[C@@H]3CNCCO3)C3(CC3)C2)c2nccnc12` (single isomer, unassigned) [Example 71A], the IC50 was 3.8 µM. `N#Cc1ccc(N2CC(C(=O)NC[C@@H]3CNCCO3)C3(CC3)C2)c2nccnc12` (single isomer, unassigned) [Example 71B] gave an IC50 of 1.9 µM. `CN1CCC(NC(=O)[C@H]2CN(c3ccc(C#N)c4nccnc34)C[C@@H]2C(F)(F)F)CC1` [Example 1, (3R,4R)-1-(8-cyanoquinoxalin-5-yl)-N-(1-methyl-4-piperidyl)-4-(trifluoromethyl) pyrrolidine-3-carboxamide] was tested, and the IC50 was 5.2 µM. In the case of `CN1CCC(NC(=O)[C@H]2CN(c3ccc(C(F)(F)F)c4nccnc34)C[C@@H]2C(F)(F)F)CC1` [Example 2, (3R,4R)—N-(1-methyl-4-piperidyl)-4-(trifluoromethyl)-1-[8-(trifluoromethyl)quinoxalin-5-yl]pyrrolidine-3-carboxamide], the IC50 is reported as 5.5 µM. `C[C@H]1CN(c2ccc(C#N)c3nccnc23)C[C@@H]1C(=O)NC1CCN(C)CC1` [Example 3, (3R,4R)-1-(8-cyanoquinoxalin-5-yl)-4-methyl-N-(1-methyl-4-piperidyl)pyrrolidine-3-carboxamide] showed an IC50 of 5.7 µM. Compound `CN1CCC(NC(=O)[C@H]2CN(c3ccc(C#N)c4ncccc34)C[C@@H]2C(F)(F)F)CC1` [Example 4, (3R,4R)-1-(8-cyano-5-quinolyl)-N-(1-methyl-4-piperidyl)-4-(trifluoromethyl)pyrrolidine-3-carboxamide] has an IC50 of 9.9 µM. Compound `C[C@H]1CN(c2ccc(C(F)(F)F)c3nccnc23)C[C@@H]1C(=O)NC1CCN(C)CC1` [Example 5, (3R,4R)-4-methyl-N-(1-methyl-4-piperidyl)-1-[8-(trifluoromethyl)quinoxalin-5-yl]pyrrolidine-3-carboxamide] has an IC50 of 10.4 µM.
